# Laboratory results published in patent US20060204436A1, “Tritiated growth hormone secretagogue mk-0677” (priority 2003, published 2006).
# Target: T1, growth hormone secretagogue receptor (Homo sapiens, UniProt Q92847)
# T1 construct: expressed in transfected cells; host or cells: HEK 293 (EBNA) cells, membrane preparation
# Test: Saturation binding assay using T-MK0677 on transfected HEK 293 (EBNA) cell membranes
# Experimental: Human Embryonic Kidney HEK 293 (EBNA) cells were grown in suspension and transfected according to the method previously described (Schlaeger and Christensen, Cytotechnology, 30, 71-83, 1999). The cells were centrifugated for 10 min at 500 rpm, washed once with PBS-0.7 mM EDTA/(4° C.) and resuspended in PBS-EDTA-PI (with Protease inhibitor cocktail), at 2 ml/g of cells. Cells were broken with Ultra Turax level green 3×15″ with 30″ breaks on ice. To remove debris the suspension was centrifugated in a Sorvall SS34 rotor for 20 min at 2,000 rpm. The supernatant was collected and centrifugated for 40 min at 20,000 rpm. The pellet was resuspended in PBS-EDTA. Receptor density was verified with saturation binding assay using T-MK 0677 to be 4.9 pmol/mg protein.
# The membrane was resuspended in Binding buffer (25 mM Hepes, pH 7.4, 25 mM MgCl2, 1 mM CaCl2, 0.1% BSA, 0.03% Bacitracine (protease inhibitor)) to 0.1 to 2 μg/well. […]
# A filter plate (Packard GF/B unifilter plate) was treated with 50 μL/well 0.5% polyethyleneimine (PEI) in PBS for 15 min. […] Then 50 μL of Microscint 0 were added per well and the T decay counted in a topcount from Packard Instruments.
# T1 sequence (Q92847 whole entry): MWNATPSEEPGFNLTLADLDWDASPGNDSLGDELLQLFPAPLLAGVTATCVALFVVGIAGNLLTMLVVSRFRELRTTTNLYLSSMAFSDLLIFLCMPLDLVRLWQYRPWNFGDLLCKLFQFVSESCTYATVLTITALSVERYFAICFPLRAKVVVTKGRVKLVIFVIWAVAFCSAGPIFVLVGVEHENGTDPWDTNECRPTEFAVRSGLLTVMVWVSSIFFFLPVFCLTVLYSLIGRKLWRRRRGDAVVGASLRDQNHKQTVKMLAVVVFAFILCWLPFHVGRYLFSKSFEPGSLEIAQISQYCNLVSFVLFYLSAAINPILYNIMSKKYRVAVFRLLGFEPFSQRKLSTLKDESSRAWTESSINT
substance,measurement,value
"tris-tritiated-2-amino-N-[(1R)-2-[1,2-dihydro-1-(methylsulfonyl)spiro[3H-indole-3,4′-piperidin]-1′-yl]-2-oxo-1-[(phenylmethoxy)methyl]ethyl]-2-methyl-, monomethanesulfonate [T-MK 0677]",Receptor density,4.9 pmol/mg protein
